Results on twelve compounds are retold here after patent US10822334B2, “ErbB receptor inhibitors” (Dizal (Jiangsu) Pharmaceutical Co., Ltd., priority 2018, dated 2020).

Like-named read-outs stand apart in the source and are kept apart here.

For series [1], the target named is WT HER2 (Homo sapiens (Human), UniProt P04626). The experiment in a line: HER2 (Y1248) phosphorylation in BT474 cells (MSD). The settings on record: p-HER2 (Y1248)/total HER2, 4 h, read-out: HER2 WT Amplification BT474 IC50. The class given is cell-based. As to the method:
The plates were incubated for 4 h at 37° C. with 5% CO2 and then the HER2 (Y1248) phosphorylation level of cells in each well were measured with MSD Kit (Phospho-ErbB2 ([…]) Assay Whole Cell Lysate Kit: Cat # […]-3). The assay is a electrochemiluminescent method (MESO SCALE DISCOVERY) for determining both phosphorylated and total HER2 of cells with an MSD SECTOR® Imager and then the ratio of p-HER2/total HER2 can be generated by the machine.

Series [2] in a line: Blood brain barrier penetration assay in rats (short oral absorption model). In kind it is in vivo. The settings on record: for Kp uu: male, Han Wistar, rat, po. Here is the method: In vitro blood, plasma and brain binding assay was carried out with equilibrium dialysis device. Diluted blood (1:1with DPBS pH7.4), EDTA-anticoagulated plasma, and brain homogenate (1:3 with DPBS pH7.4) were spiked with 5 μM test compound (in triplicate) and dialyzed against equal volume of 150 μL 100 mM PBS buffer (pH7.4) at 37° C. for appropriate equilibration time in a slowly rotated plate. At the end of incubation, a 50 μL aliquot from the receiver side and a 5 μL from the donor chamber were taken. The 5 μL sample was further diluted with 45 μL of blank blood, plasma or brain homogenate. Paired samples were matrix-matched with either buffer or blank matrix, and mixed for 2 min, and then precipitated with 150 μL cold acetonitrile with 100 ng/mL tolbutamide as internal standard. After centrifuging at 4000 rpm for 20 min, supernatant was diluted with 0.1% formic acid aqueous solution and analyzed for LC/MS/MS (API 4000, Applied Biosystems, Foster City). Unbound fraction (fu) of test compound were calculated by the ratio of the buffer side response to the brain homogenate/plasma/blood side response, and unbound fraction (fu,bl, fu,pl and fu,br) of test compound in non-diluted blood and tissue were calculated from measured fu in homogenate and diluted blood with the following equation: fu,bl (fu,br)=(1/D)/[(1/fu−1)+1/D)]. D is dilution factor. (D equates 1 for plasma, 2 for blood, and 4 for brain)
A Short oral absorption (SOA) model is an in-vivo screening model to identify brain penetration of a compound. Six male Han Wistar rats purchased from Beijing Vital River were orally dosed with the compound. At predefined time point post-dose, cerebral spinal fluid (CSF) was collected from cisterna magna, and blood samples (>60 μL/time point/each site) were collected via cardiac puncture, into separate EDTA anti-coagulated tubes, and then immediately diluted with 3-fold volume of water for blood samples, or centrifuged at 4000 g for 10 min to obtain plasma. Brain tissue was harvested and homogenized in 3× volume of 100 mM phosphate buffered saline (pH7.4). All samples were stored at ˜−70° C. prior to LC/MS/MS analysis.
Standards were prepared by spiking blank plasma, blood, brain homogenate and artificial CSF. Homogenized brain tissue along with blood/plasma samples were precipitated by adding 3-fold volume of cold acetonitrile containing internal standard, and 10 μL of CSF samples were precipitated with 100 μL of cold acetonitrile containing internal standard. After 2 min vortex and 5 min centrifugation at 14,000 rpm, supernatant was analyzed by LC/MS/MS (API 4000, Applied Biosystems, Foster City). Two sets of standard curves were run at the beginning and end of each batch from blood sample analysis. For brain and CSF samples, one standard curve was analyzed along with test samples.
Total brain levels, expressed as brain/blood ratio (Kp,brain) were measured by AUC(brain)/AUC(blood or plasma) in rodents after oral administration. Similarly, CSF levels represented by a ratio of CSF/blood exposure (Kp,CSF) were determined by AUC(CSF)/AUC(blood or plasma). Free fraction of test compound in biological matrix was determined by in vitro blood and brain binding assay.
Kp,uubrain and Kp,uu CSF was calculated by the following equation: Kp,uu brain=AUC(brain)/AUC(blood or plasma)×(fubrain/fublood/plasma) and Kp,uu CSF=AUC(CSF)/AUC(blood or plasma)×(1/fublood/plasma).

Series [3] has as its system BT474 cells. The experiment in a line: BT474 anti-proliferation assay (MTS). In kind it is cell-based. The note with it: Homo sapiens. As to the method: A compound's activity of selective inhibition for HER2 wild type amplification can be evaluated with BT474 cell line (ATCC® HTB-20™). The cell line expressed phosphorylated HER2 protein and its proliferation depended on the amplified gene, which could be used for in vitro PD and anti-proliferation assays.
The anti-proliferation activity of compounds were determined as following procedure: The BT474 cells were sorted in 384 well plates with the DMEM medium containing 10% FBS and […] overnight and then dosed with tested compounds at a series of concentrations (30 μM, 10 μM, 3 μM, 0.3 μM, 0.1 μM, 0.03 μM, 0.01 μM, 0.001 μM) on next day. Meanwhile, another cells plate was prepared for measuring GO value on next day. The dosed plates were incubate for 72h at 37° C. with 5% CO2 and the number of viable cells in each well of GO or dosed plates were measured by MTS (CellTiter 96® AQueous One Solution Cell Proliferation Assay, Promega) endpoint. This assay is a colorimetric method for determining the number viable cells in the proliferation assay. Detection reagents (5 μl) was dispensed into per well, and the plates were incubated for 2 hrs at room temperature. Then, absorbance at 490 nm and 650 nm (reference wavelength) in each well was measured using the safile II. (Tecan). The percentage of proliferation was got from the formula: % Proliferation=100×(G3 value of sample well-Go value)/(G3 value of DMSO control-Go value). The GI50 values were further calculated as the compounds concentration required for 50% Proliferation in best-fit curves using Genedata Screener® software.

Series [4] deals with WT EGFR (Homo sapiens (Human), UniProt P00533). Put plainly: EGFR (Y1068) phosphorylation in NCI-H838 cells (MSD). In kind it is cell-based. The settings on record: p-EGFR (Y1068)/total EGFR, 4 h, hEGF stimulation.
Setting [5] is: CSF, male Han Wistar rats, oral, AUC(CSF)/AUC(blood or plasma) x 1/fu, read-out: Kp,uu CSF.
Setting [6] is: brain, male Han Wistar rats, oral, AUC(brain)/AUC(blood or plasma) x fu ratio, read-out: Kp,uu brain.
Setting [7] is: BT-474, BT474 cells, 72 h, MTS, read-out: HER2 WT Amplification BT474 GI50.

Sequence of WT EGFR (P00533 25-1210): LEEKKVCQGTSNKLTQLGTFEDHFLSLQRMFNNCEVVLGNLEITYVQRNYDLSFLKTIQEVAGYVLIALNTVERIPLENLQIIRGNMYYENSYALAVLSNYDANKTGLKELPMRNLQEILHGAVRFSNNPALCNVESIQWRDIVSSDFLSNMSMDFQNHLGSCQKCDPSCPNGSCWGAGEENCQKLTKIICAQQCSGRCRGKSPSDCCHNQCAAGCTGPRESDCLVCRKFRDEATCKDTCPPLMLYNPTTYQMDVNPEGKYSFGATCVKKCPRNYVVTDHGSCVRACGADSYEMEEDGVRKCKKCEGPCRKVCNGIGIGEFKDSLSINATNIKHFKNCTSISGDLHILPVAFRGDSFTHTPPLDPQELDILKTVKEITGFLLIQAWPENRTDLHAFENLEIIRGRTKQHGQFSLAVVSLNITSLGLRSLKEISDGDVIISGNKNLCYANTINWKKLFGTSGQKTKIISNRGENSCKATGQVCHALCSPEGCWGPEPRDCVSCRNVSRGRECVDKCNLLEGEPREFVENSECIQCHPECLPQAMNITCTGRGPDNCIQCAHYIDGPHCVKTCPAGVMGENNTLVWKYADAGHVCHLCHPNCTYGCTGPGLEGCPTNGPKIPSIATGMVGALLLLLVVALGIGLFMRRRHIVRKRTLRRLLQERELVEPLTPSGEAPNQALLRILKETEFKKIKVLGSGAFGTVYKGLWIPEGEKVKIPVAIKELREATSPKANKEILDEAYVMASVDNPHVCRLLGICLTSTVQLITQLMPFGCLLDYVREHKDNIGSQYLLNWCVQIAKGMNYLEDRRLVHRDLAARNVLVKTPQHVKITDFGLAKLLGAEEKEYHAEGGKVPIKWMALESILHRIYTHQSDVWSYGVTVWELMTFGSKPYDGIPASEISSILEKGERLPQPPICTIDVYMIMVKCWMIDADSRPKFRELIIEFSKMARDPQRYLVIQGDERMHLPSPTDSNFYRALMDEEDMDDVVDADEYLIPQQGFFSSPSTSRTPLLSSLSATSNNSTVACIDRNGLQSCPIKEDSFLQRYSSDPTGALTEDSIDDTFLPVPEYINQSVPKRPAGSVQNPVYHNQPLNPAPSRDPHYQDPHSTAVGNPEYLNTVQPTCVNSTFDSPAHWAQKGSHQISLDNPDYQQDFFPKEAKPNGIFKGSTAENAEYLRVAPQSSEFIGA
Sequence of WT HER2 (P04626 23-1255): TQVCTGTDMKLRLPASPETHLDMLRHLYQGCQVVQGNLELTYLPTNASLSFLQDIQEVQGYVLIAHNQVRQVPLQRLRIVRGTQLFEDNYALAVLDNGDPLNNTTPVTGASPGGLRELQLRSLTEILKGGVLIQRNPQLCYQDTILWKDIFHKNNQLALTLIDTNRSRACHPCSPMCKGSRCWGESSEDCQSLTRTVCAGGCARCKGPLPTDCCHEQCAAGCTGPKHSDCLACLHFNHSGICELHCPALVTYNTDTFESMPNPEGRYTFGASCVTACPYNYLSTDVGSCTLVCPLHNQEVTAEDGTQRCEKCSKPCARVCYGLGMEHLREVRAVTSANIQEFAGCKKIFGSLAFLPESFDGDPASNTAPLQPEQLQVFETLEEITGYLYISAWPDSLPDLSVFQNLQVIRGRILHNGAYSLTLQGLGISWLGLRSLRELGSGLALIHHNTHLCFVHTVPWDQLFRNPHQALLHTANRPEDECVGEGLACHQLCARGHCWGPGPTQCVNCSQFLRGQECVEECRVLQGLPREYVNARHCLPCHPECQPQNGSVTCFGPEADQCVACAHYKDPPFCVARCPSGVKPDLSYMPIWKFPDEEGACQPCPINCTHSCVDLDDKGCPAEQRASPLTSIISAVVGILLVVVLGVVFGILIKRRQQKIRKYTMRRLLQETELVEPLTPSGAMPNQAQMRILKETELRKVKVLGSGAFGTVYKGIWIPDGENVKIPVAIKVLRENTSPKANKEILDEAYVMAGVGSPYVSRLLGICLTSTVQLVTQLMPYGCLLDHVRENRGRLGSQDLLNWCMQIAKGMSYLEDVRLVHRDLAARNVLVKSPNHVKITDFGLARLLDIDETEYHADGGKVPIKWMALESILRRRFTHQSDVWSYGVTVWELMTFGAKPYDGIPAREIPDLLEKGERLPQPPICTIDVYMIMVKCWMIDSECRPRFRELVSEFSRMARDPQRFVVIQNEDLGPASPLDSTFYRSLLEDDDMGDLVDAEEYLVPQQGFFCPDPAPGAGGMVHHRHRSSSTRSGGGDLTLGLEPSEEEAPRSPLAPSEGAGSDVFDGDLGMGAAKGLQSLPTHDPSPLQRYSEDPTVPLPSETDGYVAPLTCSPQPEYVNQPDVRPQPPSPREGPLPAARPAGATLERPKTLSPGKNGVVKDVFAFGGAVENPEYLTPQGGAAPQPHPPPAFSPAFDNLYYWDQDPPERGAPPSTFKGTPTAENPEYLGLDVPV

As a reminder, the IC50 is the concentration needed to halve the response being measured. As a reminder, the GI50 is the concentration at which growth is held to half of that of the control. `[2H]C([2H])([2H])N1CC[C@H](Oc2cccc3ncnc(Nc4ccc(Oc5ccn6ncnc6c5)c(C)c4)c23)C[C@@H]1C(F)(F)F` (racemic) [Compound 25, (±)-N-(4-([1,2,4]triazolo[1,5-a]pyridin-7-yloxy)-3-methylphenyl)-5-(((2R,4S)-1-(methyl-d3)-2-(trifluoromethyl)piperidin-4-yl)oxy)quinazolin-4-amine]: the figures for the concentration for half-maximal inhibition (IC50) in series [1] and in series [4] were 16.8 nM and greater than 10000 nM, respectively. Also, the Kp uu was 1.92 in series [2] (setting [5]) and 0.11 in series [2] (setting [6]). In addition, the GI50 in series [3] (setting [7]) was found to be 47.2 nM.
In the same order, the values of `[2H]C1(Oc2cc(OC)cc3ncnc(Nc4ccc(Oc5ccn6ncnc6c5)c(C)c4)c23)CCN(C)CC1(F)F` (racemic) [Compound 27, (±)-N-(4-([1,2,4]triazolo[1,5-a]pyridin-7-yloxy)-3-methylphenyl)-5-((3,3-difluoro-1-methylpiperidin-4-yl-4-d)oxy)-7-methoxyquinazolin-4-amine] are 10.3 nM, 5130 nM, 0.52, 0.1 and 22.1 nM.
As to `Cc1cc(Nc2ncnc3cccc(OC4CCN(C)CC4(F)F)c23)ccc1Oc1ccn2ncnc2c1` (single isomer, unassigned) [Compound 1, N-(4-([1,2,4]triazolo[1,5-a]pyridin-7-yloxy)-3-methylphenyl)-5-((3,3-difluoro-1-methylpiperidin-4-yl)oxy)quinazolin-4-amine], the IC50 in series [1] was 6.86 nM; in series [4], greater than 3000 nM. Moreover, the Kp uu in series [2] (setting [5]) stood at 1.44; in series [2] (setting [6]) it was 0.23. In series [3] (setting [7]), the GI50 was found to be 24.2 ± 24 nM.
As to `COc1cc(O[C@H]2CCN(C)CC2(F)F)c2c(Nc3ccc(Oc4ccn5ncnc5c4)c(C)c3)ncnc2c1` (single isomer, unassigned) [Compound 6], the 50% inhibitory concentration (IC50) in series [1] was 19.6 ± 8.76 nM; in series [4] it was 3290 ± 1350 nM. The Kp uu in series [2] (setting [5]) came to 0.56; in series [2] (setting [6]), 0.18. Moreover, the 50% growth inhibitory concentration (GI50) in series [3] (setting [7]) is 18.7 ± 9.16 nM.
Regarding `COc1cc(OC2CCN(C)CC2(F)F)c2c(Nc3cc(C)c(Oc4ccn5ncnc5c4)cc3F)ncnc2c1` (single isomer, unassigned) [Compound 14], the IC50 in series [1] was found to be 19.7 nM; in series [4] it was 1390 nM. The results for the Kp uu in series [2] (setting [5]) and in series [2] (setting [6]) were 0.24 and 0.04, respectively. Also, the GI50 in series [3] (setting [7]) amounted to 26.8 ± 11.5 nM.
As to `Cc1cc(Nc2ncnc3cc(F)cc(OC4CCN(C)CC4(F)F)c23)ccc1Oc1ccn2ncnc2c1` (single isomer, unassigned) [Compound 17], the IC50 in series [1] was 44 nM; in series [4], greater than 3000 nM. Moreover, the Kp uu in series [2] (setting [5]) came out at 1.02; in series [2] (setting [6]) it was 0.07. Further, in series [3] (setting [7]), the GI50 stood at 126 ± 9.01 nM.
Regarding `Cc1cc(Nc2ncnc3cccc(OC4CC(C)N(C)CC4(F)F)c23)ccc1Oc1ccn2ncnc2c1` (single isomer, unassigned) [Compound 19], the IC50 in series [1] is 9.56 ± 3.13 nM; in series [4] it was greater than 10000 nM. The Kp uu was 0.4 in series [2] (setting [5]) and 0.1 in series [2] (setting [6]). In series [3] (setting [7]), the GI50 turned out to be 11.5 nM.
Turning to `[2H]C([2H])([2H])N1CCC(Oc2cccc3ncnc(Nc4ccc(Oc5ccn6ncnc6c5)c(C)c4)c23)C(F)(F)C1` (single isomer, unassigned) [Compound 24, N-(4-([1,2,4]triazolo[1,5-a]pyridin-7-yloxy)-3-methylphenyl)-5-((3,3-difluoro-1-(methyl-d3)piperidin-4-yl)oxy)quinazolin-4-amine], the values for the concentration for half-maximal inhibition (IC50) in series [1] and in series [4] were 9.38 nM and greater than 10000 nM, respectively. Also, the Kp uu in series [2] (setting [5]) stood at 1.44; in series [2] (setting [6]), 0.23. In series [3] (setting [7]), the GI50 amounted to 50.8 nM.
Consider `[2H]C([2H])([2H])N1CCC([2H])(Oc2cc(OC)cc3ncnc(Nc4ccc(Oc5ccn6ncnc6c5)c(C)c4)c23)C(F)(F)C1` (single isomer, unassigned) [Compound 28], for which the IC50 was determined as 22.4 nM in series [1] and 5220 nM in series [4]. Also, the Kp uu in series [2] (setting [5]) was determined as 0.52; in series [2] (setting [6]), 0.11. Also, the GI50 in series [3] (setting [7]) came out at 35.8 nM.
Consider `COc1cc(O[C@H]2CCNCC2(F)F)c2c(Nc3ccc(Oc4ccn5ncnc5c4)c(C)c3)ncnc2c1` [Compound 16, (S)-N-(4-([1,2,4]triazolo[1,5-a]pyridin-7-yloxy)-3-methylphenyl)-5-((3,3-difluoropiperidin-4-yl)oxy)-7-methoxyquinazolin-4-amine], for which the IC50 was determined as 10.6 ± 2.4 nM in series [1] and 3060 ± 80.2 nM in series [4]. Also, the values for the Kp uu in series [2] (setting [5]) and in series [2] (setting [6]) were 0.11 and 0.03, respectively. In series [3] (setting [7]), the 50% growth inhibitory concentration (GI50) came to 14.3 ± 13.6 nM.
On to `Cc1cc(Nc2ncnc3cccc(O[C@@H]4C[C@H]5CC[C@@H](C4)N5C)c23)ccc1Oc1ccn2ncnc2c1` [Compound 20, N-(4-([1,2,4]triazolo[1,5-a]pyridin-7-yloxy)-3-methylphenyl)-5-(((1R,3s,5S)-8-methyl-8-azabicyclo[3.2.1]octan-3-yl)oxy)quinazolin-4-amine], for which the IC50 was 12.6 nM in series [1] and greater than 10000 nM in series [4]. For the same compound, the Kp uu in series [2] (in vivo, Kp,uu CSF) was 0.07; in series [2] (in vivo, Kp,uu brain) it was 0.08. Besides, the GI50 in series [3] (setting [7]) was 41 ± 1.55 nM.
As for `CCOc1cc2ncc(C#N)c(Nc3ccc(OCc4ccccn4)c(Cl)c3)c2cc1NC(=O)/C=C/CN(C)C` [Neratinib, reference compound], the “Kp,uu CSF” value in series [2] (male Han Wistar rats, oral, AUC(CSF)/AUC(blood or plasma) x 1/fu) is “AUC(CSF) below”. Besides, the “Kp,uu brain” value in series [2] (male Han Wistar rats, oral, AUC(brain)/AUC(blood or plasma) x fu ratio) is on record as “AUC(brain) below”. In series [3] (BT-474, 72 h, read-out: HER2 WT Amplification BT474 GI50 (nM)), the 50% growth inhibitory concentration (GI50) came out at 0.71 ± 0.08 nM.
